ChEMBL document CHEMBL1201862, “PubChem BioAssay data set” (2004)
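These data come from cells grown in 96-well plates and exposed to compound for 48 hours at five concentrations. GI50 = concentration required for 50% inhibition of growth.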 Calls of active or inactive are those of the source. Cut-off read from the data, not from the text of the source: active = GI50 up to about 1.1 µM and inactive = higher.

Key:
Assay in all cases: growth of human tumour cells (NCI), 48 h
M14 = system: M14
SN12C = system: SN12C
RPMI-8226 = system: RPMI-8226
MDA-MB-435 = system: MDA-MB-435
NCI-H23 = system: NCI-H23
NCI-H460 = system: NCI-H460
MOLT-4 = system: MOLT-4
T47D = system: T47D
SNB-75 = system: SNB-75
KM12 = system: KM12
SR = system: SR
OVCAR-5 = system: OVCAR-5
MDA-MB-231 = system: MDA-MB-231
SW-620 = system: SW-620
IGROV-1 = system: IGROV-1
SNB-19 = system: SNB-19
EKVX = system: EKVX
UACC-62 = system: UACC-62
LOX IMVI = system: LOX IMVI
NCI/ADR-RES = system: NCI/ADR-RES
NCI-H522 = system: NCI-H522
HCC 2998 = system: HCC 2998
UO-31 = system: UO-31
ACHN = system: ACHN
HOP-92 = system: HOP-92
HOP-62 = system: HOP-62
U-251 = system: U-251
CAKI-1 = system: CAKI-1
SF-539 = system: SF-539
TK-10 = system: TK-10
SK-MEL-5 = system: SK-MEL-5
MCF7 = system: MCF7
SF-268 = system: SF-268
SK-OV-3 = system: SK-OV-3
786-0 = system: 786-0
SF-295 = system: SF-295
CCRF-CEM = system: CCRF-CEM
BT-549 = system: BT-549
COLO 205 = system: COLO 205
RXF 393 = system: RXF 393
Malme-3M = system: Malme-3M
OVCAR-3 = system: OVCAR-3
OVCAR-8 = system: OVCAR-8
DU-145 = system: DU-145
NCI-H226 = system: NCI-H226
MDA-N = system: MDA-N
Hs-578T = system: Hs-578T
PC-3 = system: PC-3
HT-29 = system: HT-29
SK-MEL-28 = system: SK-MEL-28
HL-60 = system: HL-60
K562 = system: K562
A549 = system: A549
OVCAR-4 = system: OVCAR-4
SK-MEL-2 = system: SK-MEL-2
UACC-257 = system: UACC-257
HCT-116 = system: HCT-116
HCT-15 = system: HCT-15

COC(=O)c1ccccc1C1CN=NC12Cc1ccccc1C2=O (stereo not drawn)
GI50 (M14): 68.1 µM (inactive)
GI50 (SN12C): > 100 µM (inactive)
GI50 (RPMI-8226): 48 µM (inactive)
GI50 (MDA-MB-435): 42.6 µM (inactive)
GI50 (NCI-H23): > 100 µM (inactive)
GI50 (NCI-H460): > 100 µM (inactive)
GI50 (MOLT-4): 41.7 µM (inactive)
GI50 (T47D): 41.3 µM (inactive)
GI50 (SNB-75): 43.6 µM (inactive)
GI50 (KM12): 58.1 µM (inactive)
GI50 (SR): > 100 µM (inactive)
GI50 (OVCAR-5): > 100 µM (inactive)
GI50 (MDA-MB-231): 78 µM (inactive)
GI50 (SW-620): > 100 µM (inactive)
GI50 (IGROV-1): > 100 µM (inactive)
GI50 (SNB-19): > 100 µM (inactive)
GI50 (EKVX): 42.5 µM (inactive)
GI50 (UACC-62): 42.1 µM (inactive)
GI50 (LOX IMVI): 45.4 µM (inactive)
GI50 (NCI/ADR-RES): 46.8 µM (inactive)
GI50 (NCI-H522): 59.2 µM (inactive)
GI50 (HCC 2998): > 100 µM (inactive)
GI50 (UO-31): 34.2 µM (inactive)
GI50 (ACHN): > 100 µM (inactive)
GI50 (HOP-92): 34 µM (inactive)
GI50 (HOP-62): > 100 µM (inactive)
GI50 (U-251): > 100 µM (inactive)
GI50 (CAKI-1): > 100 µM (inactive)
GI50 (SF-539): > 100 µM (inactive)
GI50 (TK-10): > 100 µM (inactive)
GI50 (SK-MEL-5): 42.4 µM (inactive)
GI50 (MCF7): > 100 µM (inactive)
GI50 (SF-268): > 100 µM (inactive)
GI50 (SK-OV-3): > 100 µM (inactive)
GI50 (786-0): > 100 µM (inactive)
GI50 (SF-295): > 100 µM (inactive)
GI50 (CCRF-CEM): > 100 µM (inactive)
GI50 (BT-549): 49.2 µM (inactive)
GI50 (COLO 205): > 100 µM (inactive)
GI50 (RXF 393): > 100 µM (inactive)
GI50 (Malme-3M): 74.5 µM (inactive)
GI50 (OVCAR-3): 40.5 µM (inactive)
GI50 (OVCAR-8): 59.6 µM (inactive)
GI50 (DU-145): > 100 µM (inactive)
GI50 (NCI-H226): > 100 µM (inactive)
GI50 (MDA-N): > 100 µM (inactive)
GI50 (Hs-578T): 50.7 µM (inactive)
GI50 (PC-3): 34 µM (inactive)
GI50 (HT-29): > 100 µM (inactive)
GI50 (SK-MEL-28): 77.6 µM (inactive)
GI50 (HL-60): 47.4 µM (inactive)
GI50 (K562): 68.5 µM (inactive)
GI50 (A549): > 100 µM (inactive)
GI50 (OVCAR-4): 52.4 µM (inactive)
GI50 (SK-MEL-2): > 100 µM (inactive)
GI50 (UACC-257): > 100 µM (inactive)
GI50 (HCT-116): > 100 µM (inactive)
GI50 (HCT-15): > 100 µM
